Assay results from BindingDB's records for doi:10.1074/jbc.M003490200 (University of Virginia, 2000).

What follows are compounds tested against T1, Leukotriene B4 receptor 2 (Homo sapiens, UniProt Q9NPC1).
T1 sequence (Q9NPC1 whole entry): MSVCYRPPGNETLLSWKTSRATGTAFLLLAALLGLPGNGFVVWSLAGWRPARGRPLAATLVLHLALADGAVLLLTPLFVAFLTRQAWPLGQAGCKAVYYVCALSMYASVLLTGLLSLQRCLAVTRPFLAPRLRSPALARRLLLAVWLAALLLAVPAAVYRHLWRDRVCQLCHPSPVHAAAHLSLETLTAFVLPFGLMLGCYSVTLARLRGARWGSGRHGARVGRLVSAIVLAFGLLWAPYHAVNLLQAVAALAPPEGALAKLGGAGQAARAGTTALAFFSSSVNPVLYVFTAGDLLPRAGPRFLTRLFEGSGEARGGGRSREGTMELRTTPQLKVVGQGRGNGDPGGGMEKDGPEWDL
In the case of `CCCCC/C=C\C\C=C/C=C/C=C/[C@@H](SC[C@H](N)C(=O)NCC(=O)O)[C@@H](O)CCCC(=O)O` [5S-hydroxy-6R-(S-cysteinylglycinyl)-7E,9E,11E,14Z-eicosatetraenoic acid], the Ki is reported as 3.48 nM.
`O=C(Nc1ccc2c(=O)cc(-c3nnn[nH]3)oc2c1)c1ccc(OCCCCc2ccccc2)cc1` [CAS_103177-37-3] gave a Ki of 3620 nM.
With `CC(C)(O)c1ccccc1CCC(S)c1cccc(C=Cc2ccc3ccc(Cl)cc3n2)c1` (stereo unspecified) [NSC_5311297] the Ki was > 10000 nM.
`CCCCC/C=C\C\C=C/C=C/C=C/[C@@H](SC[C@H](N)C(=O)O)[C@@H](O)CCCC(=O)O` [(5S-(5R*,6S*(S*),7E,9E,11Z,14Z))-6-((2-Amino-2-carboxyethyl)thio)-5-hydroxy-7,9,11,14-eicosatetraenoic acid] was tested, and the Ki was 693 nM.
`CCCCCC=CCC=CC=CC=CC(SCC(NC(=O)CCC(N)C(=O)O)C(=O)NCC(=O)O)C(O)CCCC(=O)O` (stereo unspecified) [CAS_5283121] was tested, and the Ki was 3.35 nM.
Compound `COc1cc(C(=O)NS(=O)(=O)c2ccccc2C)ccc1Cc1cn(C)c2ccc(NC(=O)OC3CCCC3)cc12` [cyclopentyl 3-(2-methoxy-4-((o-tolylsulfonyl)carbamoyl)benzyl)-1-methylindole-5-carbamate] has a Ki of 7400 nM.
